According to patent US20240041796A1, “ANTI-INFLAMMATORY COMPOSITION COMPRISING N-BENZYL-N-METHYLDECAN-1-AMINE OR A DERIVATIVE THEREOF AS AN ACTIVE INGREDIENT” (PUSAN NATIONAL UNIVERSITY INDUSTRY-UNIVERSITY COOPERATION …, priority 2022, published 2024):

Columns and labels:
[1] = tested on: human THP-1 monocytic cell line; experiment: LPS-induced inflammation-related signal transduction in THP-1 cells, immunoblotting; format: cell-based; settings: THP-1 cultured 3 hours with compound, then LPS 1 μg/ml 1 hour; FIG. 2A-B
Protocol: (§1) Each of BMDA (FMJ-G0) or DMMA (FMJ-G4) was added to a culture medium at concentrations of […], and 1 μM in a 6-well plate. The human THP-1 monocytic cell line (5×10^5 cells/well) was cultured therein for 3 hours. Each well was treated with lipopolysaccharide at a concentration of 1 μg/ml. After 1 hour, centrifugation was performed to obtain a supernatant which was used in an ELISA for inflammatory cytokine evaluation. Cell lysate was added to the collected THP-1 cells for immunoblotting.

[2] = tested on: human THP-1 monocytic cell line; experiment: ELISA of inflammatory cytokines in supernatant of LPS-treated THP-1 cells; format: cell-based; settings: LPS 1 μg/ml, FIG. 2C
Protocol: as §1

DBA/J1 male mice = experiment: Serum AST and ALT activity (hepatotoxicity indicators) in the collagen-induced rheumatoid arthritis model; format: in vivo, mouse; settings: oral administration for 3 weeks; FIG. 7
Protocol: In one example, BMDA (FMJ-G0) and a derivative thereof (DMMA, FMJ-G4) at a concentration of 2.5 mg/mL were orally administered to male mice in a volume of 200 μL (20 mg/body weight Kg) for 21 days. In a control group, soybean oil was orally administered thereto.
During the experiment, the insteps of the forelimbs and hindlimbs were measured with a caliper three times a week, and the mice were suffocated, and joint areas were prepared for immunohistochemical staining and immunoblotting. Moreover, the spleen was removed therefrom and a size thereof was measured. Further, blood was drawn through the hepatic portal vein to prepare serum. A specific method was as follows. • 1) Paraffin sections were prepared as the joints including the ankles of the forelimbs. At this time, decalcification is performed first, followed by sectioning the same at a thickness of 4 μm, and H&E staining. • 2) The cell lysis solution was added thereto, and then we crushed the tissue with a sonicator, which was prepared for immunoblotting. • 3) Trisol solution was added to the joint tissue, the tissue was pulverized in a sonicator, and centrifuged, and the Trisol solution was used to precipitate proteins and DNA for entire RNA separation, and the entire RNA was collected from the supernatant obtained via the centrifugation. c-DNA was synthesized using oligo-dT primer and reverse transcriptase, and then, quantitative qRT-PCR and immunoblotting were performed thereon.

Balb/C mice = experiment: DNCB-induced atopic dermatitis model, cosmetic cream applied to the skin; format: in vivo, mouse; settings: for DNCB-induced atopic dermatitis (level of dermatitis): cosmetic cream (0.3% active; Lidomax ointment 0.15%) applied to the back for 2 weeks, 9C; for DNCB-induced atopic dermatitis (level of dermatitis) / hair regrowth on the skin: FIG. 9A; for size of the (inguinal) lymph node: cosmetic cream (Lidomax ointment 0.15%) applied for 2 weeks, FIG. 9B, 9D; for hair regrowth on the skin: cosmetic cream applied for 2 weeks; for thickness of the dermis: hematoxylin-eosin stained skin sections, FIG. 10A-B; for phosphorylation level of JNK in skin / phosphorylation level of NF-KB in skin / phosphorylation level of p38MAPK in skin: immunoblotting, FIG. 11D; for phosphorylation level of JNK in skin / phosphorylation level of NF-KB in skin / phosphorylation level of p38MAPK in skin / concentration of IgE in the blood: vs control group; for amount of COX2 transcriptome in skin / amount of IL-1β transcriptome in skin / amount of IL-6 transcriptome in skin / amount of TNF-α transcriptome in skin / amount of iNOS transcriptome in skin: qRT-PCR, vs DNCB control, FIG. 11A-C; for concentration of IgE in the blood: serum ELISA, 2 weeks of treatment, FIG. 10D; for invasion of mast cells into the dermis: toluidine-blue staining, FIG. 10C
Protocol: Wed added 0.3 g of olive wax to 2 mL of soybean oil (Sigma-Aldrich) in a glass tube (15 ml), and put the tube in a 75° C. water-bath, and performed a double boiling thereon to melt the olive wax for 30 minutes while vortexing the tube at 10 minute interval. Under the same conditions, 7.7 ml of purified water was put into a 75° C. water-bath and heated the same for 30 minutes. Next, 7.5 ml of purified water was poured into the tube containing the olive wax and the mixture was stirred well via vortexing. Then, […] (0.3%) of each of BMDA and derivatives thereof (FMJ-G0, FMJ-G4, FMJ-G1, FMJ-G2, FMJ-G3) as synthesized in Examples 1 and 3 were added to the mixture, followed by stirring. The reaction product was cooled in ice and prepared in the form of a cosmetic cream.
In order to induce atopic dermatitis using 5-week-old Balb/C mice, hair on the back of the mouse was removed therefrom, and after one day, a 0.5% solution in which DNCB (2,4-dinitrochlorobenzne) is mixed with acetone and olive oil (3:1) was prepared, and then was applied thereon for 3 consecutive days by 150 μL per each day. Thereafter, the solution of the same concentration was applied to the back area from which the hair was removed twice a week and this process continued for 2 weeks. Further, to alleviate atopic dermatitis induced in this way, the cosmetic cream containing each of BMDA (FMJ-G0) and the derivatives thereof (FMJ-G4, FMJ-G1, FMJ-G2, FMJ-G3) of the present disclosure as prepared above was applied to the back of rats with the induced atopic dermatitis for 2 weeks, and then, changes in skin inflammation were examined.
The experimental results of FIG. 10A and FIG. 10B was obtained as follows as in FIG. 9. The skin tissue was removed from the back of the mouse in the group, and was placed fixedly in 10% formaldehyde for 48 hours, and paraffin pieces were made, and the pieces were thinly sliced so as to have a thickness of 4 μm and was subjected to hematoxylin-esoin staining. Then, whether the damaged skin tissue was recovered by each of BMDA (FMJ-G0) and DMMA (FMJ-G4) was examined using an optical microscope equipped with a Leica application (Leica Microsystems, Switzerland).
To this end, the atopic dermatitis is induced in FIG. 9, and on 2 weeks since the treatment with BMDA (FMJ-G0) and DMMA (FMJ-G4), blood (500 ul) is collected from the hepatic veins of the rats of the above groups, and left at room temperature for 30 minutes. Then, serum was separated and prepared via centrifugation, and then, the IgE concentration related to the allergic reaction was measured through ELISA using the serum thus prepared.
Anti-mouse IgE (Pharmingen, CA, USA) was diluted with PBS (pH 7.4) on a 96-well plate, 100 μL thereof was coated on each 96-well plate, and then left at 4° C. for 12 hours. The plate was washed with PBS containing 0.05% tween. Blocking was performed thereon for 1 hour with PBS containing 1% BSA, 5% sucrose, and 0.05% NaN3. Washing was performed thereon several times using washing buffer. Recombinant IgE and serum were added thereto, and reaction occurred at 37° C. for 2 hours, and each well was washed again, and biotinylated IgE (Pharmingen, CA, USA) was added thereto. Reaction occurred for 2 hours. After washing the well, avidin peroxidase was added thereto and reaction occurred at 37° C. for 30 minutes. Then, the well was washed and then, ABTS solution as a substrate was added thereto. Absorbance was measured at 405 nm using ELISA reader (Epoch2, Biotek, VT, USA).
FIG. 11 show data obtained as follows. The atopic dermatitis was induced as described in FIG. 9, and on 2 weeks since the treatment with BMDA or DMMA (FMJ-G0/G4), a portion of the skin tissue of the rats in the groups were put in Trisol solution and the tissue was crushed in a sonicator. […]

Row | Compound | activity of JNK activated by LPS [1] | activity of p38 MAPK activated by LPS [1] | inflammation-related signaling pathway leading to p38 MAPK-MK2 [1] | production of IL-1β [2] | production of TNF-α [2] | activity of ALT enzyme in serum (DBA/J1 male mice) | activity of AST enzyme in serum (DBA/J1 male mice) | DNCB-induced atopic dermatitis (level of dermatitis) (Balb/C mice) | size of the (inguinal) lymph node (Balb/C mice) | hair regrowth on the skin (Balb/C mice) | thickness of the dermis (Balb/C mice) | phosphorylation level of JNK in skin (Balb/C mice) | phosphorylation level of NF-KB in skin (Balb/C mice) | phosphorylation level of p38MAPK in skin (Balb/C mice) | amount of COX2 transcriptome in skin (Balb/C mice) | amount of IL-1β transcriptome in skin (Balb/C mice) | amount of IL-6 transcriptome in skin (Balb/C mice) | amount of TNF-α transcriptome in skin (Balb/C mice) | amount of iNOS transcriptome in skin (Balb/C mice) | concentration of IgE in the blood (Balb/C mice) | further results
1 | CCCCCCCCCCN(C)Cc1ccccc1 [BMDA, N-benzyl-N-methyldecan-1-amine] | suppressed | suppressed | inhibited | inhibited | inhibited | did not increase | did not increase | significantly alleviated | the same as that of the spleen | observed | significantly reduced | significantly lowered | significantly lowered | significantly lowered | markedly lowered | markedly lowered | markedly lowered | markedly lowered | markedly lowered | significantly lower | invasion of mast cells into the dermis (Balb/C mice): prevents
2 | CCCCCCCCCCN(C)Cc1ccc(OC)cc1 [DMMA, Decyl-(4-methoxy-benzyl)-methyl-amine] | suppressed | suppressed | inhibited | inhibited | inhibited | did not increase | did not increase | significantly alleviated | the same as that of the spleen | observed | significantly reduced | significantly lowered | significantly lowered | significantly lowered | markedly lowered | markedly lowered | markedly lowered | markedly lowered | markedly lowered | significantly lower | invasion of mast cells into the dermis (Balb/C mice): prevents
